The values that follow are results of earlier work, collected in patent US20110082127A1, “NEW INJECTABLE FORMULATIONS CONTAINING PROGESTERONE” (priority 2004, published 2011).

For this data set the following is noted: stated by the known art.

For the compound `OC[C@H]1O[C@@H]2O[C@H]3[C@H](O)[C@@H](O)[C@@H](O[C@H]4[C@H](O)[C@@H](O)[C@@H](O[C@H]5[C@H](O)[C@@H](O)[C@@H](O[C@H]6[C@H](O)[C@@H](O)[C@@H](O[C@H]7[C@H](O)[C@@H](O)[C@@H](O[C@H]8[C@H](O)[C@@H](O)[C@@H](O[C@H]1[C@H](O)[C@H]2O)O[C@@H]8CO)O[C@@H]7CO)O[C@@H]6CO)O[C@@H]5CO)O[C@@H]4CO)O[C@@H]3CO` [unsubstituted β-cyclodextrin, β-cyclodextrin], the water solubility is 1.8 g/100 ml.
